The subject of data set [1] is four human cancer cell lines (Panc-1, MCF-7, HT-29, A-549). Kind of data set: Antiproliferative assay, average (GI50) versus the four cancer cell lines. It counts as cell-based. As to conditions: for GI50: Homo sapiens, average versus the four cancer cell lines; for fold less potent than 3e (GI50): relative to 3e GI50 29 nM. As for the experimental part: (§1) For ease of manipulation, the average (GI50) versus the four cancer cell lines was used.
(§2) To investigate the antiproliferative potential of 3a–e, 4a–c, and 5a–c, the MTT assay was carried out using various cell lines in accordance with previously reported procedures. See Appendix SA (Supplementary Materials). […]
(§3) ethylenediamine tetra acetic acid (EDTA) was used to passage the cells after every 2-3 days. 96-well flat-bottomed cell culture plates were used to seed the cells at a density of 10^4 cells mL-1. The medium was aspirated from all the wells of culture plates after 24 h followed by the addition of synthesized compounds (in 200 μL medium to yield a final concentration of 0.1% (v/v) dimethylsulfoxide) into individual wells of the plates.
(§4) Four wells were designated to a single compound. The plates were allowed to incubate at 37°C for 96 h. Afterwards, the medium was aspirated and 3-[4,5-dimethylthiazol-2-yl]-2,5-diphenyltetrazolium bromide (MTT) (0.4 mg/mL) in medium was added to each well and subsequently incubated for 3 h. The medium was aspirated and 150 μL dimethyl sulfoxide (DMSO) was added to each well. The plates were vortexed followed by the measurement of absorbance at 540 nm on a microplate reader. The results were presented as inhibition (%) of proliferation in contrast to controls comprising 0.1% 4.2.1.2. Assay for antiproliferative effect
(§5) To explore the antiproliferative potential of compounds propidium iodide fluorescence assay was performed using different cell lines such as Panc-1 (pancreas cancer cell […]
(§6) (epithelial cancer cell line), respectively. To calculate the total nuclear DNA, a fluorescent dye (propidium iodide, PI) is used which can attach to the DNA, thus offering a quick and precise technique. PI cannot pass through the cell membrane and its signal intensity can be considered as directly proportional to quantity of cellular
(§7) DNA. Cells whose cell membranes are damaged or have changed permeability are counted as dead ones. The assay was performed by seeding the cells of different cell lines at a density of 3000-7500 cells/well (in200μl medium) in culture plates followed […]
(§8) The medium was removed; the compounds were added to the plates at 10 μM concentrations (in 0.1% DMSO) in triplicates, followed by incubation for 48h. DMSO (0.1%) was used as control. After incubation, medium was removed followed by the addition of PI (25 μl, 50μg/mL in water/medium) to each well of the plates. At -80 °C, the plates were allowed to freeze for 24 h, followed by thawing at 25 °C. A fluorometer (Polar-Star BMG Tech) was used to record the readings at excitation and emission wavelengths of 530 and 620 nm for each well. The percentage cytotoxicity of compounds was calculated using the following formula:
(§9) Where ATC= Absorbance of treated cells and AC= Absorbance of control. […]
(§10) was used as positive control in the assay. […]

Data set [2] deals with T1, BRAF^V600E (Mus musculus, UniProt P28028, V585E).
T1 construct: Mouse full-length GST-tagged; GST; purchased Invitrogen PV3849
Kind of data set: V600E mutant BRAF kinase assay. It counts as biochemical. Particulars: for IC50: read-out: BRAF^V600E Inhibition IC50 ± SEM. The protocol:
V600E mutant BRAF kinase assay was performed to investigate the activity of […]
Mouse full-length GST-tagged
BRAFV600E (7.5 ng, Invitrogen, PV3849) was pre -incubated with drug (1 µL) and assay dilution buffer (4 µL) for 6 0 min at 25 °C. In assay dilution buffer, a solution (5 µL) containing MgCl2 (30 mM), ATP (200 µM), recombinant human full length (200 ng) […] N-terminal His-tagged MEK1 (Invitrogen) was added to start the assay, after incubation for 25 min at 25 °C. The assay was stopped using 5X protein denaturing buffer (LDS) solution (5 µL). To further denature the protein, heat (70° C) was applied […]
electrophoresis (at 200 V). 10 µL of each reaction was loaded into the precast plates and electrophoresis was allowed to proceed. After completion of electrophoresis, the front part of the precast gel plate (holding hot ATP) was cut and afterwards cast -off.
The dried gel was developed using a phosphor screen. […]
Computerized Prism 5 program was used to statistically analyzed data using one-way ANOVA test followed by Tukey’s as post ANOVA for multiple comparison at P ≤.05.
Data were presented as mean ± SEM.

For data set [3], the target named is T2, EGFR (Homo sapiens, UniProt P00533). The experiment in a line: EGFR-TK inhibitory assay.
Data set [4] relates to MCF-7 (breast cancer cell line). The experiment in a line: Antiproliferative assay, MCF-7. It counts as cell-based. As to conditions: Homo sapiens, MCF7; read-out: Antiproliferative Activity IC50 ± SEM MCF-7. As for the experimental part: as §1, §2, §3, §4, §5, §6, §7, §8, §9, §10
A short description of data set [5]: Cell viability assay (MTT) on normal mammary epithelial cells. The format is cell-based. Particulars: human, MCF-10A normal mammary gland epithelial cells, four days of incubation. The protocol: The viability test was performed on a normal human mammary gland epithelial cell line (MCF-10A). The MTT test was used to assess the viability of compounds 3a–e, 4a–c, and 5a–c.
The MTT assay was used to determine how the synthesized compounds affected the viability of mammary epithelial cells (MCF-10A). See Appendix SA (Supplementary Materials). […]
4.2. Biological evaluation
4.2.1. Cytotoxic activity using MTT Assay and evaluation of IC50
MTT assay was performed to investigate the effect of the synthesized compounds on mammary epithelial cells (MCF-10A). The cells were propagated in medium consisting of Ham's F-12 medium/ Dulbecco's modified Eagle's medium (DMEM) (1:1) supplemented with 10% foetal calf serum, 2 mM glutamine, insulin (10 μg/mL), hydrocortisone (500 ng/mL) and epidermal growth factor (20 ng/mL). Trypsin ethylenediamine tetra acetic acid (EDTA) was used to passage the cells after every 2-3 days. 96-well flat-bottomed cell culture plates were used to seed the cells at a density of 10^4 cells mL-1. The medium was aspirated from all the wells of culture plates after 24 h followed by the addition of synthesized compounds (in 200 μL medium to yield a final concentration of 0.1% (v/v) dimethylsulfoxide) into individual wells of the plates.
Four wells were designated to a single compound. The plates were allowed to incubate at 37°C for 96 h. Afterwards, the medium was aspirated and 3-[4,5-dimethylthiazol-2-yl]-2,5-diphenyltetrazolium bromide (MTT) (0.4 mg/mL) in medium was added to each well and subsequently incubated for 3 h. The medium was aspirated and 150 μL dimethyl sulfoxide (DMSO) was added to each well. The plates were vortexed followed by the measurement of absorbance at 540 nm on a microplate reader. […]

The subject of data set [6] is A-549 (epithelial cancer cell line). Kind of data set: Antiproliferative assay, A-549. The format is cell-based. As to conditions: Homo sapiens, A549; read-out: Antiproliferative Activity IC50 ± SEM A-549. The protocol: as §1, §2, §3, §4, §5, §6, §7, §8, §9, §10
Data set [7] relates to HT-29 (colon cancer cell line). The experiment in a line: Antiproliferative assay, HT-29. The format is cell-based. As to conditions: Homo sapiens, read-out: Antiproliferative Activity IC50 ± SEM HT-29. The protocol:
as §1, §2, §3, §4, §5, §6, §7, §8, §9, §10

Data set [8] has as its system Panc-1 (pancreatic cancer cell line). The experiment in a line: Antiproliferative assay, Panc-1. Particulars: Homo sapiens, read-out: Antiproliferative Activity IC50 ± SEM Panc-1. It counts as cell-based. The protocol:
as §1, §2, §3, §4, §5, §6, §7, §8, §9, §10

Data set [9] deals with T2, EGFR. Details: CD, amino acids 645–1186); His6 (N); made in house; host or cells: Sf-9 insect cells (baculovirus; pBlueBacHis2B / pFASTBacHTc. As to conditions: cited from earlier work.
For data set [10], the system named is BRAF^V600E. Particulars: cited from earlier work.

The structures appear in SMILES notation. Read-outs that look alike come from different tables or passages of the source.

T2 sequence (P00533 669-1210): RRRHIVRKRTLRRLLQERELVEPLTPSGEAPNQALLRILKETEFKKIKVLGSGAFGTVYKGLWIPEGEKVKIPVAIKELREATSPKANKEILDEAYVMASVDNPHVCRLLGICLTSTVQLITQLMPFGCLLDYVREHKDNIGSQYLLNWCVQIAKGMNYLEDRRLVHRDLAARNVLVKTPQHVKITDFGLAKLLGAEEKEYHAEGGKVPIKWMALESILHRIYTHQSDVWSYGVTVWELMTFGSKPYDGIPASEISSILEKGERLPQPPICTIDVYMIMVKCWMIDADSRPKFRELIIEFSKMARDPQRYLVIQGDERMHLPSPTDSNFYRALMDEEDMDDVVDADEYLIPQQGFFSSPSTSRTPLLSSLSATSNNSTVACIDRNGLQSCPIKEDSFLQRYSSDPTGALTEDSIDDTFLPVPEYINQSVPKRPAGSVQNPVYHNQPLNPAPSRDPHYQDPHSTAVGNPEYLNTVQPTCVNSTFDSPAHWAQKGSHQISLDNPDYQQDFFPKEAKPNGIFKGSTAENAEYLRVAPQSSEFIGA
T1 sequence (P28028 whole entry V585E): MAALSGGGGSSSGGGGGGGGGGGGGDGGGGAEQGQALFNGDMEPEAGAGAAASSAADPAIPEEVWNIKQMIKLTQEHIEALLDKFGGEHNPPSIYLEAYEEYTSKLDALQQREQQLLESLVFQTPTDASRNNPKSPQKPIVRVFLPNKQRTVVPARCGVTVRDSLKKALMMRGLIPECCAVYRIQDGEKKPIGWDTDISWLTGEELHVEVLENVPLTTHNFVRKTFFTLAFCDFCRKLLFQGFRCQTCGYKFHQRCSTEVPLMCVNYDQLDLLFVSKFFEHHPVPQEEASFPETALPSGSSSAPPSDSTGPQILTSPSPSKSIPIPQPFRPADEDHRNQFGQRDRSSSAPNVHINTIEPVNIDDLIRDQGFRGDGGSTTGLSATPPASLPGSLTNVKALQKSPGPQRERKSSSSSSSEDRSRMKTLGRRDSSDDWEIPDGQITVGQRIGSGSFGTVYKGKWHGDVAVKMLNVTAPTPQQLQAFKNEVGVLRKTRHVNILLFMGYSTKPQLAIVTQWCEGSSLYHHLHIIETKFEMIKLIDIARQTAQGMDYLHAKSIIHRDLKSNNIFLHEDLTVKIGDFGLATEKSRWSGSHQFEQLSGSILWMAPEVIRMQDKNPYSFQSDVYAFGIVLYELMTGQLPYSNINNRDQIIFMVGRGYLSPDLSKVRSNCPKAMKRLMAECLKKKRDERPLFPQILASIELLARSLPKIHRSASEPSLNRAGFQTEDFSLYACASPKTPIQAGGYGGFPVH

In general, GI50 refers to the concentration at which growth is held to half of that of the control. Read a low GI50 as more potent growth inhibition. As a reminder, the IC50 is the midpoint of a concentration-inhibition curve. The term viability denotes a read-out of living cells in per cent, often relative to untreated cells. In data set [1], `CCOC(=O)c1[nH]c2ccc(Cl)cc2c1CNCCc1ccccc1` [Compound 3a, Ethyl 5-chloro-3-((phenethylamino)methyl)-1H-indole-2-carboxylate] yielded a GI50 of 35 nM. In addition, the IC50 on BRAF^V600E [2] was determined as 43 ± 4 nM; against EGFR [3] it was 85 ± 6 nM; in data set [4], 35 ± 3 nM; in data set [6], 33 ± 3 nM; in data set [7], 36 ± 3 nM; in data set [8] it was 36 ± 3 nM. Also, the “fold less potent than vemurafenib (BRAF^V600E IC50)” value at BRAF^V600E [2] (relative to vemurafenib IC50 = 30 nM) is 1.4 fold. The viability at 96 h, 50 µM in [5] is 87%.

In turn, `CCOC(=O)c1[nH]c2ccc(Cl)cc2c1CNCCc1ccc(N2CCCCC2)cc1` [Compound 3c, Ethyl 5-chloro-3-((4-(piperidin-1-yl)phenethylamino)methyl)-1H-indole-2-carboxylate] yielded a GI50 in [1] of 42 nM. Also, in [1], the “fold less potent than 3e (GI50)” value came out at 1.5 fold. Moreover, the IC50 stood at 67 ± 6 nM at BRAF^V600E [2]; 89 ± 6 nM at EGFR [3]; 45 ± 4 nM in data set [4]; 41 ± 4 nM in [6]; 44 ± 4 nM in [7]; 42 ± 4 nM in data set [8]. This compound showed a viability at 96 h, 50 µM in [5] of 89%.

In data set [1], `CCOC(=O)c1[nH]c2ccc(Cl)cc2c1CNCCc1ccc(N2CCCC2C)cc1` (stereo not shown) [Compound 3d, Ethyl 5-chloro-3-((4-(2-methylpyrrolidin-1-yl)phenethylamino)methyl)-1H-indole-2-carboxylate] showed a GI50 of 38 nM. In data set [1], the “fold less potent than 3e (GI50)” value came out at 1.3 fold. The IC50 on BRAF^V600E [2] is 54 ± 5 nM; against EGFR [3], 82 ± 7 nM; in data set [4], 40 ± 4 nM; in data set [6] it was 37 ± 3 nM; in [7] it was 38 ± 3 nM; in data set [8] it was 38 ± 3 nM. Besides, the viability at 96 h, 50 µM in [5] was determined as 90%.

As to `O=C(O)c1[nH]c2ccc(Cl)cc2c1CNCCc1ccccc1` [Compound 4a, 5-Chloro-3-((phenethylamino)methyl)-1H-indole-2-carboxylic acid], the GI50 in data set [1] was determined as 78 nM. For the same compound, the IC50 in data set [4] is 79 ± 7 nM; in data set [6], 75 ± 7 nM; in [7], 78 ± 7 nM; in [8], 78 ± 7 nM. Further, the viability at 96 h, 50 µM in [5] was 91%.

As for `O=C(O)c1[nH]c2ccc(Cl)cc2c1CNCCc1ccc(N2CCCC2)cc1` [Compound 4b, 5-Chloro-3-((4-(pyrrolidin-1-yl)phenethylamino)methyl)-1H-indole-2-carboxylic acid], the GI50 in data set [1] stood at 68 nM. Besides, the IC50 was 69 ± 6 nM in data set [4], 65 ± 6 nM in data set [6], 68 ± 6 nM in data set [7] and 68 ± 6 nM in data set [8]. Moreover, the viability at 96 h, 50 µM in [5] worked out at 89%.

In data set [1], `O=C(O)c1[nH]c2ccc(Cl)cc2c1CNCCc1ccc(N2CCCCC2)cc1` [Compound 4c, 5-Chloro-3-((4-(piperidin-1-yl)phenethylamino)methyl)-1H-indole-2-carboxylic acid] registered a GI50 of 72 nM. Moreover, the IC50 in data set [4] is 73 ± 7 nM; in data set [6], 69 ± 7 nM; in data set [7] it was 75 ± 7 nM; in data set [8], 72 ± 7 nM. Besides, in [5], the viability at 96 h, 50 µM turned out to be 87%.

Regarding `O=C1c2[nH]c3ccc(Cl)cc3c2CN1CCc1ccccc1` [Compound 5a, 7-Chloro-2-phenethyl-1,2-dihydropyrrolo [3,4-b]indol-3(4H)-one], in data set [1], the GI50 stood at 48 nM. The IC50 was determined as 48 ± 5 nM in data set [4], 46 ± 4 nM in [6], 49 ± 5 nM in data set [7] and 50 ± 5 nM in [8]. In [5], this compound returned a viability at 96 h, 50 µM of 89%.

In turn, `O=C1c2[nH]c3ccc(Cl)cc3c2CN1CCc1ccc(N2CCCC2)cc1` [Compound 5b, 7-Chloro-2-(4-(pyrrolidin-1-yl)phenethyl)-1,2-dihydropyrrolo [3,4-b]indol-3(4H)-one] showed a GI50 in data set [1] of 62 nM. Moreover, the IC50 in data set [4] is 61 ± 6 nM; in [6] it was 58 ± 5 nM; in data set [7], 66 ± 6 nM; in data set [8], 64 ± 6 nM. In addition, the viability at 96 h, 50 µM in data set [5] stood at 89%.

In turn, `O=C1c2[nH]c3ccc(Cl)cc3c2CN1CCc1ccc(N2CCCCC2)cc1` [Compound 5c, 7-Chloro-2-(4-(piperidin-1-yl)phenethyl)-1,2-dihydropyrrolo [3,4-b]indol-3(4H)-one] returned a GI50 in [1] of 54 nM. The IC50 was 53 ± 5 nM in data set [4], 51 ± 5 nM in [6], 57 ± 5 nM in data set [7] and 55 ± 5 nM in [8]. Also, in data set [5], the viability at 96 h, 50 µM amounted to 91%.

With `O=C(NCCc1ccc(N2CCOCC2)cc1)c1[nH]c2ccc(Cl)cc2c1CO` [Compound IVc], on EGFR [9], the IC50 was 120 nM.

As to `Cc1c2cc(Cl)ccc2n2cc(Cc3ccccc3)[nH]c(=O)c12` [Compound V], in the data set on BRAF^V600E [10], the IC50 was 100 nM.

For the compound `CCOCc1c2n(c3ccc(Cl)cc13)C(=O)CN(CCc1ccc(N3CCOCC3)cc1)C2=O` [VII], the IC50 was 32 nM at EGFR [9] and 45 nM with BRAF^V600E [10].

Source of the values: PMC9921301, “Design, Synthesis, and Antiproliferative Activity of New 5-Chloro-indole-2-carboxylate and Pyrrolo[3,4-b]indol-3-one Derivatives as Potent Inhibitors of EGFR^T790M/BRAF^V600E Pathways” (Molecules, 2023).
